Measured values reported in patent US4648996A, “Phenyl substituted-2,4,6,8-nonatetraenoic acid” (Hoffmann-La Roche Inc., priority 1985, dated 1987).

Experiments:
[1] = test system: impregnated sponge granuloma in the rat; assay: Impregnated sponge granuloma test in the rat; format: in vivo, AHH/R female rats (PVG derived)
Description: AHH/R female rats (PVG derived) with an initial weight range of 120-140 g. were used.
Sponge preparation. Pellets (6.5 mm diameter) were punched from cellulose sponge cloth ("Wettex") and 0.1 ml. of a suspension containing 0.5 mg.ml^-1 of heat killed M. tuberculosis (human strains C, DT and PN) in sterile saline was applied to each pellet. The pellets were dried, weighed and autoclaved.
Rats were randomly divided into groups of five and daily dosing with test compounds was commenced. After the fifth dose the rats were anaesthetised with Sagatal (45 mg.kg^-1 i.p.) the backs were shaved and two pellets were implanted subcutaneously (one each side) into each rat through a small dorsal midline incision. The incision was closed and the rats allowed to recover from the anaesthetic.
Seven days after implantation the rats were killed and the pellets were removed, dissected free of extraneous tissue and weighed. Each pellet was then placed in a 4 ml aliquot of distilled water, chopped with fine scissors and sonicated. After centrifugation the Na^+ and K^+ content of the supernatant was determined by flame photometry. In addition the adrenal and thumus glands from each rat were dissected out and weighed and the lower hind limbs were removed for measurement of tibial bone breaking strain. Body weights were also recorded throughout the test period.
The mean ± SE for each of the parameters was calculated and differences from the control values were determined by Student's t test (2-tailed). Percentage reductions of granuloma weight, Na^+ and K^+ content and percentage changes of adrenal and thymus, weight and tibial breaking strain were determined.

in vivo = details: mouse
From the text: The compounds of formulae I and II and salts thereof can be utilized to treat patients suffering from rheumatoid arthritis and related disorders.

[2] = test system: type II collagen arthritis in rats; assay: Established type II collagen arthritis; format: in vivo, Male and female Alderley Park Strain 1 rats; details: for Paw Vol / wt / GAG (urine glycosaminoglycans): 100 mg.kg^-1 p.o.
Description: Male and female Alderley Park Strain 1 rats.
Type 2 collagen (prepared from bovine nasal septum cartilage), Freunds incomplete adjuvant (Difco).
Rats were sensitized to type 2 collagen by injecting them intradermally with 1 ml. of a water in oil emulsion consisting of equal parts of a 1 mg.ml^-1 solution of type 2 collagen in 0.45M NaCl, 0.02M Tris, pH 7.4 and Freunds incomplete adjuvant. Rats developing arthritis were allocated on day 15 post sensitization to a control arachis oil treated group (6 male, 4 female) or to the Compound A treated group (6 male, 5 female). Hind paw volume measurements were taken to ensure even distribution of rats between groups. An overnight collection of urine was made on days 15/16 and dosing commenced on day 16. These urine samples were analyzed for glycosaminoglycans (GAG). Compound A was dosed at 100 mg.kg^-1 p.o. On days 19/20 a second overnight collection of urine was made. These urine samples were analyzed for glycosaminoglycans (GAG). On day 20 a second hind paw measurement was taken. Rats were then anaesthetised with sodium pentobarbitone, bled, killed and X-rays taken of hind and forepaws. Rats were dosed on days 16-19 inclusive (4 doses).

[3] = test system: MBSA delayed hypersensitivity in mice; assay: Delayed hypersensitivity to methylated bovine serum albumin (MBSA); format: in vivo, Male and female MFI mice substrain E33; details: for % increase paw volume / % reduction (cf. arachis oil control): 10 doses
Description: Male and female MFI mice substrain E33. Initial weight approximately 25 gm.
Dosing with vehicle and retinoid commenced on day 0 and finished on day 9.
Each group consisted of 4 male and 6 female mice (separately caged). Drugs were dosed orally at a dose volume of 10 ml.kg^-1 (10 doses).

Which results are given for `CCCCCCCCCOc1ccccc1/C=C/C(C)=C/C=C/C(C)=C/C(=O)O` [Compound A, All(E)-9-[2(nonyloxy)phenyl]-3,7-dimethyl-2,4,6,8-nonatetraenoic acid]?
% reduction of granuloma K+ ([1]; 15 mg.kg^-1 p.o.): -6.9%; % reduction of granuloma Na+ ([1]; 15 mg.kg^-1 p.o.): 14.5%; % reduction of granuloma Wet weight ([1]; 15 mg.kg^-1 p.o.): 15.1%; % reduction of granuloma K+ ([1]; 45 mg.kg^-1 p.o.): 0.8%; % reduction of granuloma Na+ ([1]; 45 mg.kg^-1 p.o.): 11%; % reduction of granuloma Wet weight ([1]; 45 mg.kg^-1 p.o.): 10.8%; LD50 (in vivo; ip): > 1000 mg/kg; LD50 (in vivo; po): > 1000 mg/kg; Paw Vol ([2]; day 16 (start of dosing)): 2.44 ± 0.08; wt ([2]; day 16 (start of dosing)): 247 ± 14 g; GAG (urine glycosaminoglycans) ([2]; day 16 (urine days 15/16)): 1586 ± 307 µg; GAG (urine glycosaminoglycans) ([2]; day 20 (urine days 19/20)): 634 ± 72 µg; Paw Vol ([2]; day 20, after 4 doses): 2.66 ± 0.06; wt ([2]; day 20, after 4 doses): 229 ± 10 g; weight during treatment (in words) ([2]; male and female rats, 100 mg.kg^-1): lost weight; % increase paw volume ([3]; 10 mg.kg^-1 oral): 102 ± 12%; % reduction (cf. arachis oil control) ([3]; 10 mg.kg^-1 oral): 6%; Mean body weight change ([3]; 10 mg.kg^-1 oral, female (F)): -0.2 g; Mean body weight change ([3]; 10 mg.kg^-1 oral, male (M)): 3.3 g; % increase paw volume ([3]; 30 mg.kg^-1 oral): 50 ± 7%; % reduction (cf. arachis oil control) ([3]; 30 mg.kg^-1 oral): 54%; Mean body weight change ([3]; 30 mg.kg^-1 oral, female (F)): 0.5 g; Mean body weight change ([3]; 30 mg.kg^-1 oral, male (M)): 2.8 g; % increase paw volume ([3]; 100 mg.kg^-1 oral): 40 ± 5%; % reduction (cf. arachis oil control) ([3]; 100 mg.kg^-1 oral): 63%; Mean body weight change ([3]; 100 mg.kg^-1 oral, female (F)): -0.2 g; Mean body weight change ([3]; 100 mg.kg^-1 oral, male (M)): 3.3 g
